According to PubChem BioAssay (NCI):
Where “and” joins values, the source holds several entries; their conditions need not be identical. Equal entries are not always repeated.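 Test compounds were applied to cells in 96-well plates for 48 hours at 5 doses. The concentration for 50% growth inhibition is given as GI50. TGI: total growth inhibition.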

Key:
Assay in all cases: NCI-60 cell line screen, 48 h
OVCAR-3 ovarian = system: OVCAR-3 ovarian
SF-539 CNS = system: SF-539 CNS
HOP-62 NSCLC = system: HOP-62 NSCLC
IGROV1 ovarian = system: IGROV1 ovarian
MDA-MB-435 = system: MDA-MB-435
SF-268 CNS = system: SF-268 CNS
NCI-H226 lung = system: NCI-H226 lung
SK-OV-3 ovarian = system: SK-OV-3 ovarian
HCT-15 colon = system: HCT-15 colon
K-562 leukemia = system: K-562 leukemia

SMILES | GI50 (OVCAR-3 ovarian) | TGI (OVCAR-3 ovarian) | GI50 (SF-539 CNS) | TGI (SF-539 CNS) | GI50 (HOP-62 NSCLC) | TGI (HOP-62 NSCLC) | GI50 (IGROV1 ovarian) | TGI (IGROV1 ovarian) | GI50 (MDA-MB-435) | TGI (MDA-MB-435) | GI50 (SF-268 CNS) | TGI (SF-268 CNS) | GI50 (NCI-H226 lung) | TGI (NCI-H226 lung) | GI50 (SK-OV-3 ovarian) | TGI (SK-OV-3 ovarian) | GI50 (HCT-15 colon) | TGI (HCT-15 colon) | GI50 (K-562 leukemia) | TGI (K-562 leukemia)
CCCCNC(=O)CC1=C(C)/C(=C/c2[nH]c(-c3ccc[nH]3)cc2OC)N=C1C | 2.58 µM | 9.77 µM | 2.75 µM | 9.31 µM | 2.5 µM | 9.76 µM | 3.23 µM | 10.3 µM | 2.87 µM | 9.71 µM | 2.66 µM | 15 µM | 2.74 µM | 8.77 µM | 2.76 µM | 8.96 µM | 1.88 µM | 4.12 µM |  | 
Cc1cc(NS(=O)(=O)c2ccc(-c3cnc(C4CC4)o3)cc2)ccc1Cl | 0.0745 µM | 11.4 µM | 0.281 µM | 4.09 µM | 0.313 µM | 17 µM | 0.335 µM | 13 µM |  |  | 2.19 µM | 19.9 µM | 0.985 µM | 17.5 µM | 0.868 µM | 20.8 µM | 0.116 µM | 12.7 µM | 0.0567 µM | > 100 µM
COC1(OC)CCC2(C)OC(c3ccccc3)C1O2 (configuration not stated) |  | > 100 µM |  | > 100 µM |  | > 100 µM |  | > 100 µM |  |  |  | > 100 µM |  | > 100 µM |  | > 100 µM |  | > 100 µM |  | > 100 µM
CS(=O)(=O)ON1C(=O)c2ccc(N)cc2C1=O |  | > 100 µM |  | > 100 µM |  | > 100 µM |  | > 100 µM |  |  |  | > 95.7 µM |  | > 100 µM |  | > 100 µM |  | > 100 µM |  | > 100 µM
CC(=O)[CH-]C(=O)c1ccccc1.CC(=O)[CH-]C(=O)c1ccccc1.CC[C@H](CCC(C)[C@H]1CCC2[C@@H]3CC=C4C[C@@H]([O-])CC[C@]4(C)C3CC[C@@]21C)C(C)C.CC[C@H](CCC(C)[C@H]1CCC2[C@@H]3CC=C4C[C@@H]([O-])CC[C@]4(C)C3CC[C@@]21C)C(C)C.Cl.[Ti+4] (some centres not stated) |  | > 25 µM |  | > 25 µM |  | > 25 µM |  | > 25 µM |  |  |  | > 25 µM |  | > 25 µM | > 25 µM | > 25 µM |  | > 25 µM |  | > 25 µM
CN(C)CC1CCCC/C1=N\OC(=O)c1ccccc1 (configuration not stated) |  | > 100 µM |  | > 100 µM |  | > 100 µM |  | > 100 µM |  |  |  | > 100 µM |  | > 100 µM |  | > 100 µM |  | > 100 µM |  | > 100 µM
c1ccc(C2=Nc3ccccc3N3CNN=C23)cc1 | 84.4 µM | > 100 µM |  |  | > 100 µM | > 100 µM | > 100 µM | > 100 µM | > 100 µM | > 100 µM | > 100 µM | > 100 µM | > 100 µM | > 100 µM | > 100 µM | > 100 µM | 90.6 µM | > 100 µM | 90.1 µM | > 100 µM
COc1ccc(-c2cc(-c3ccc(Cl)cc3)nc(SCCCC(=O)NO)n2)cc1OC | 0.423 µM | 2.52 µM | 1.28 µM | 3 µM | 1.01 µM | 6.87 µM | 1.04 µM | 2.69 µM | 1.42 µM | 3.12 µM | 1.28 µM | 3.81 µM | 1.2 µM | 5.43 µM | 1.54 µM | 4.58 µM | 0.337 µM | 1.56 µM |  | 
C/C(=C\CNc1ncnc2c1ncn2C1CCCCO1)COP(=O)(O)O (configuration not stated) |  | > 100 µM |  | > 100 µM |  | > 100 µM |  | > 100 µM |  |  |  | > 100 µM |  | > 100 µM |  | > 100 µM |  | > 100 µM |  | > 100 µM
CN(C)C/C=C/C(=O)Nc1ccc(C(=O)Nc2cccc(Nc3ncc(Cl)c(-c4c[nH]c5ccccc45)n3)c2)cc1 | < 0.0122 µM | 0.0903 µM | 0.0199 µM | 0.0575 µM | 0.0697 µM | > 100 µM | 0.0251 µM |  | 0.0352 µM | 0.274 µM |  |  | 0.106 µM | 0.369 µM | 0.12 µM | > 100 µM | 0.229 µM | > 100 µM | < 0.0148 µM | > 100 µM
CC(=O)CCC[C@@H](C)[C@@H]1O[C@H]([C@@]2(C)CCC(=O)O2)CC2[C@H]1OC(=O)C21CC1 (some centres not stated) | > 100 µM | > 100 µM | 60.6 µM | > 100 µM |  |  | 55 µM | > 100 µM | > 100 µM | > 100 µM | > 100 µM | > 100 µM |  |  | > 100 µM | > 100 µM | > 100 µM | > 100 µM | > 100 µM | > 100 µM
COC(=O)C1=C(C)N(NC(N)=O)C2(N)N(NC(N)=O)C(C)=C(C(=O)OC)C12C#N (configuration not stated) |  | > 100 µM |  | > 100 µM |  | > 100 µM |  | > 100 µM |  |  |  | > 100 µM |  | > 100 µM |  | > 100 µM |  | > 100 µM |  | > 100 µM
COc1ccc(/C=C/C(=O)C(=O)/C=C/c2ccc(OC)c(OC)c2)cc1OC | 2.84 µM | 9.9 µM | 2.13 µM | 5.16 µM | 6.8 µM | > 100 µM |  |  | 1.16 µM | 2.98 µM | 2.53 µM | 8.58 µM |  |  | 36.4 µM | > 100 µM | 0.769 µM | 6.18 µM | 1.07 µM | > 100 µM
CC(=O)NNc1nc(C)c(C(=O)/C=C/c2ccc(N(C)C)cc2)s1 |  | > 100 µM |  | > 100 µM |  | > 100 µM |  | > 100 µM |  |  |  | > 100 µM |  | > 100 µM |  | > 100 µM |  | > 100 µM |  | > 100 µM
COc1ccc(N=Nc2c(-c3ccccc3)nn(C(=O)CC(=O)Nc3ccc(OC)cc3)c2-c2ccccc2)cc1 |  | > 100 µM |  | 59 µM |  | > 100 µM |  | > 100 µM |  |  |  | > 100 µM |  | > 100 µM |  | > 100 µM |  | > 100 µM |  | > 100 µM
O=C1NC(c2cccc3ccccc23)Nc2ccc(Cl)cc21 (configuration not stated) |  | 0.0151 µM and 0.0303 µM |  |  |  | 11.9 µM |  | 32.9 µM |  | 0.000257 µM |  | 23.3 µM |  |  |  |  |  | 0.269 µM |  | 
C=C1CC[C@@](C)(c2cc(Br)c(C)cc2OC(C)=O)[C@H]1C | 14.6 µM | 29.2 µM | 13.5 µM | 26.4 µM | 17.5 µM | 31.8 µM | 13.2 µM | 29.4 µM | 13.3 µM | 27.5 µM | 13.2 µM | 28.3 µM |  |  | 16.4 µM | 29.9 µM | 15.1 µM | 31.3 µM | 14 µM | 30.2 µM
O=C(CC(O)(C(F)(F)F)C(F)(F)F)c1cccs1 |  | > 10 µM |  | > 10 µM |  | > 10 µM |  | > 10 µM |  | > 10 µM |  | > 10 µM |  |  |  | > 10 µM |  | > 10 µM |  | > 10 µM
